Reference: US11013812B2, “Ice-based lipid nanoparticle formulation for delivery of mRNA” (Translate Bio, Inc., priority 2016, dated 2021)

Test: Percent mRNA encapsulation of lipid nanoparticle formulations (fluorescence-based detection of mRNA)
Assay type: physicochemical
Conditions: LNP of cationic lipid:DOPE:DMG-PEG 2K (molar ratio 60:35:5); 5 mg mRNA LNP preparations
Excerpt: In some embodiments, one particular application of the novel lipid composition comprising a sterol-based cationic lipid, a helper lipid, and a PEG or PEG-modified lipid is pulmonary delivery of mRNA, such as CFTR mRNA.
In this process, the lipids dissolved in ethanol and the mRNA dissolved in citrate buffer were mixed using a pump system. […] The resultant formulation mixture was in citrate buffer containing 20% ethanol. The formulation was subjected to a buffer exchange and the resultant formulation was adjusted to the desired mRNA concentration and stored frozen until further use. Final concentration: 0.5 mg/mL CFTR mRNA (encapsulated). % mRNA Encapsulation: 90%. Size: 60 nm. PDI: 0.14.

SMILES | % mRNA encapsulation
CC(C)CCCC(C)C1CCC2C3CC=C4CC(OC(=O)CCc5cnc[nH]5)CCC4(C)C3CCC12C [ICE, (3S, 10R, 13R, 17R)-10, 13-dimethyl-17-((R)-6-methylheptan-2-yl)-2,3,4,7,8,9, 10, 11, 12, 13, 14, 15, 16, 17-tetradecahydro-1H-cyclopenta[a]phenanthren-3-yl 3-(1H-imidazol-4-yl)propanoate] | 90%
CCCCCCCCCCC(O)CN(CCCC(C)C1OC(=O)C(C(C)CCCN(CC(O)CCCCCCCCCC)CC(O)CCCCCCCCCC)OC1=O)CC(O)CCCCCCCCC (centres unmarked) [Target 24, 3-(5-(bis(2-hydroxydodecyl)amino)pentan-2-yl)-6-(5-((2-hydroxydodecyl)(2-hydroxyundecyl)amino)pentan-2-yl)-1,4-dioxane-2,5-dione] | 59%
CCCCCCCC/C=C\CCCCCCCC(=O)OCC(CN(C)C)OC(=O)CCCCCCC/C=C\CCCCCCCC (centres unmarked) [DODAP, 1,2-dioleoyl-3-dimethylammonium-propane] | 49%
CCCCCCCCCCC(O)CN(CCN1CCN(CCN(CC(O)CCCCCCCCCC)CC(O)CCCCCCCCCC)CC1)CCN(CC(O)CCCCCCCCCC)CC(O)CCCCCCCCCC (centres unmarked) [C12-200] | 39%
CCCCCCCC/C=C\CCCCCCCCOCC(CN(C)C)OCCCCCCCC/C=C\CCCCCCCC (centres unmarked) [DODMA, 1,2-Dioleyloxy-3-dimethylaminopropane] | 51%
